Results as given in patent US12702715B2, “Targeted RNA degradation allows precision repurposing of protein-targeted small molecule medicines to RNA” (University of Florida Research Foundation, Incorporated, priority 2020, dated 2026).
Entries after “also recorded” stand apart in the source; their conditions may differ.

Key:
[1] = Quantitation of 1 and 2 in mouse plasma and tissue; type: in vivo; conditions: male, C57BL/6, mouse, lung, ip, 56 mg/kg; intraperitoneal injection; read-out: drug exposure in the lung
Procedure: Quantitation of 1 and 2 in mouse plasma and tissue. Male C57BL/6 mice (n=3 per dose; 5-7 weeks) were intraperitoneally (i.p.) injected with 1 (24, 49 or 81 mg/kg) or 2 (17, 34 or 56 mg/kg) in a formulation of DMSO/Tween-80/H2O (10/10/80). After 48 h, mice were euthanized, and blood, lung and kidney were collected. Tissues were immediately frozen. Blood was centrifuged to generate plasma and immediately frozen. On the day of analysis, tissues were homogenized, mixed with 5-times volume of acetonitrile, and filtered. Drug levels were determined by mass spectrometry using an ABSciex 5500 mass spectrometer using multiple reaction monitoring.

[2] = test system: all miRNAs expressed in MDA-MB-231 cells; assay: Global miRNA profiling in MDA-MB-231 cells; type: cell-based, human
Procedure: RNA Isolation and Quantitative Real-Time PCR (RT-qPCR). After treatment, total RNA was extracted and purified by using the Zymo Quick-RNA mini prep kit per the manufacturer's protocol. Reverse Transcription (RT) for mature miRNAs as well as pri- and pre-miR-21 was completed on 200 ng of RNA by using a miScript 11 RT kit (QIAGEN) according to manufacturer's protocol. RT of mRNAs was performed by using QScript kit (Quanta Bio). An Applied Biosystems QS5 384-well PCR system was used to complete qPCR experiments using Power Sybr Green Mater Mix (Life Technologies) as described previously^6.

FLT3 = FLT3 degradation Western blot in MDA-MB-231 cells; type: cell-based, human
Procedure: In each case, the secondary antibody was diluted two times more than the primary antibody.

pre-miR-21 mutant [3] = assay: In vitro Chem-CLIP, pre-miR-21 mutant; type: binding; conditions: 1, 5, 20 or 100 μM
Procedure: In Vitro Chemical Cross-linking and Isolation by Pull Down (Chem-CLIP) and Competitive Chem-CLIP (C-Chem-CLIP). Growth medium [RMPI 1640 medium with L-glutamine & 25 mM HEPES (Corning)] was inactivated by heating at 95° C. to for 15 min and slowly cooling to room temperature at benchtop. Pre-miR-21 labeled with ^32P at the 5′-end (~10,000 counts) was folded in growth medium by heating at 95° C. for 1 min and slowly cooling to room temperature. To the samples was added Chem-CLIP probe 4 (1, 5, 20 or 100 μM) or negative control probe 5 (1, 5, 20 or 100 μM), and the mixtures were incubated at 37° C. for 1 h. The samples were then cross-linked by irradiation with 365 nm light for 10 min. The Chem-CLIP probe 4 or control probe 5, whether or not cross-linked to the RNA, was then clicked to disulfide biotin azide (10 mM in DMSO; 10 μL per sample; 1168-10, Click Chemistry Tools) by incubating in a solution containing 1×HEPES buffer (25 mM, pH 7), sodium ascorbate (10 μL/sample, 250 mM in H2O), CuSO4 (10 μL/sample, 50 mM in H2O), THPTA (10 μL/sample, 50 mM in H2O) for 2 h at 37° C. […] The radioactive signal from bound RNAs (on the beads) and unbound RNAs (from the wash steps) were measured by using a Beckman Coulter LS6500 Liquid Scintillation Counter. Enrichment of pre-miR-21 was calculated as previously described^6. […]

[4] = test system: base pair mutant RNA (control RNA); assay: Fluorescent binding affinity measurement, base pair mutant (control RNA); conditions: up to 40 μM of the mutant RNA
Procedure: (§1) Fluorescent Binding Affinity Measurements. Binding assays were completed as previously described^5. Briefly, the RNA of interest was folded as described in the “Solution-based Dye Displacement Assay” section, including the addition of BSA. Then, 1 was added to the RNA solution to a final concentration of 0.5 μM. The solution was serial diluted with 1× AB2 containing 0.5 μM of 1. The solutions were incubated at room temperature in the dark for 30 min. The solutions were then transferred to a black 384-well plate. Fluorescence intensity was measured using a Tecan plate reader (Gain: 100, Integration time: 40 μs) with excitation wavelength of and emission wavelength of 355 nm and 535 nm, respectively. The change in fluorescence was normalized to samples lacking RNA. Binding affinity was calculated by using Equation 2, as previously described^5. I=I0+0.5Δε{([FL]0+[RNA]0+Kd)−(([FL]0+[RNA]0+Kd)^2−4[FL]0[RNA]0)^0.5} (2) where I and I0 are the measured fluorescence intensity of compound with or without RNA, respectively, Δε is the difference between the fluorescence intensity with infinite concentration of RNA or without RNA, [FL]0 and [RNA]0 are the concentrations of small molecule and RNA, respectively, and Kd is the dissociation constant.

[5] = target: pre-miR-21's A-bulge (Dicer processing site in pre-miR-21); assay: Fluorescent binding affinity measurement, A-bulge RNA; parameters: species or system human
Procedure: as §1

pre-miR-21 mutant [6] = assay: In vitro Dicer processing of pre-miR-21 mutant; type: biochemical
Procedure: In vitro Dicer Processing. The pre-miR-21 WT RNA or pre-miR-21 base pair mutant were 5′-end labeled with T4 polynucleotide kinase and [γ-^32P] ATP as described previously^7. The RNA was folded in 1× Reaction Buffer (Genlantis) by heating at 55° C. for 5 min and cooling slowly to room temperature on the benchtop. The mixture was then supplemented with 2.5 mM MgCl2 and 1 mM ATP. The Dicer processing reaction was performed as described previously^6. The cleavage products were resolved on a 15% polyacrylamide denaturing gel and imaged using a Molecular Dynamics Typhoon phosphorimager and quantified with QuantityOne software from Bio-Rad.

## CCOC(=O)C1=C(Nc2ccccc2)S/C(=C\c2ccc(OCCOCCOCCOCCNC(=O)NCCN3CCN(c4ccc5[nH]c(-c6c(N)c7c(F)cccc7[nH]c6=O)nc5c4)CC3)c(O)c2)C1=O [Compound 2, Ribotac-Dovitinib]
[1]
  concentration at 48 h: 1000 nM
[2]
  selectivity among all miRNAs: more selective than 1; also recorded: greater selectivity
FLT3
  fold greater concentration than 1 required to compete off degradation by PROTAC 3: 100 fold
FLT3; co-treatment with 3
  concentration required to compete off the target degradation of PROTAC 3: 10 µM

## C#CCCC1(CCC(=O)NCCN2CCN(c3ccc4[nH]c(-c5c(N)c6c(F)cccc6[nH]c5=O)nc4c3)CC2)N=N1 [Compound 4]
pre-miR-21 mutant [3]
  enrichment of 32P-labeled pre-miR-21 mutant: not mutant

## CN1CCN(c2ccc3nc(-c4c(N)c5c(F)cccc5[nH]c4=O)[nH]c3c2)CC1 [Compound 1, Dovitinib, reference compound]
[4]
  binding to control RNA / base pair mutant: No saturable binding
[5]
  Kd: 3000 nM
pre-miR-21 mutant [6]
  inhibition of Dicer processing of mutant pre-miR-21 lacking the 1 binding site: had no effect; also recorded: unable to inhibit
